Here are results for 21 compounds from patent US20230293517A1, “ANTAGONIST COMPOUNDS” (AdoRx Therapeutics Limited, priority 2020, published 2023).

For test [1], the target named is human Adenosine A2a receptor (Homo sapiens (Human), UniProt P29274). The experiment in a line: Adenosine receptor TR-FRET binding assay (A2a). The following applies: inhibition of binding of 100 nM CA200645, CHO cell membranes. The essentials: (§1)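 CHO membranes, Tb-labelled hA1/hA2a/hA2b/hA3; tracer CA200645 at 100 nM (A1, A2a, A3) or 30 nM (A2b); buffer with saponin, 1% DMSO, pluronic; 2 h RT. NSB with 10 μM XAC. Read TR-FRET (ex 337, em 620/665 nm); IC50 → Ki via Cheng–Prusoff.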
human Adenosine A2a receptor, sequence (P29274 whole entry): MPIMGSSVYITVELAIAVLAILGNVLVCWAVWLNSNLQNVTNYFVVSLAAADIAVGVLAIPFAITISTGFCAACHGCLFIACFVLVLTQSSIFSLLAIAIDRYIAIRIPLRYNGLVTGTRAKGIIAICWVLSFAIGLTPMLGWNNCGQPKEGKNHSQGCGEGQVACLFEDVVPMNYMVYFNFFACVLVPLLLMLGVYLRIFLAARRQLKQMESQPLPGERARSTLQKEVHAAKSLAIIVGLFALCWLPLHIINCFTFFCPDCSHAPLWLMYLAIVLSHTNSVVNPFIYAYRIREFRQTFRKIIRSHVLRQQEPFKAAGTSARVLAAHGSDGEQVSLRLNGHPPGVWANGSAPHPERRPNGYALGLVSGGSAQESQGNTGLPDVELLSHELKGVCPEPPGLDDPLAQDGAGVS
A general note: In TR-FRET formats the signal depends on donor and acceptor labels being close together.

Test [2] deals with human Adenosine A3 receptor (Homo sapiens (Human), UniProt P0DMS8). The experiment in a line: Adenosine receptor TR-FRET binding assay (A3). The following applies: inhibition of binding of 100 nM CA200645, CHO cell membranes. The essentials: as §1
human Adenosine A3 receptor, sequence (P0DMS8 whole entry): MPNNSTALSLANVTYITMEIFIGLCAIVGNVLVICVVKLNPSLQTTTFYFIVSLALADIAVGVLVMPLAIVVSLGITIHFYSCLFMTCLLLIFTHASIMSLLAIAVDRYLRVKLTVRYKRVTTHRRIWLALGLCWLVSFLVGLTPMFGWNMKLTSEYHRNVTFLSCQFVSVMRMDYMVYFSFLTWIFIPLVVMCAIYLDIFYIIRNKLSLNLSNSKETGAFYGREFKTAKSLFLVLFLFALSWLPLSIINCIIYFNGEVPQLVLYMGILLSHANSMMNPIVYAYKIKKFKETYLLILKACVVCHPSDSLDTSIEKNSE
In test [3] the target is human Adenosine A2b receptor (Homo sapiens (Human), UniProt P29275). Briefly: Adenosine receptor TR-FRET binding assay (A2b). In short, it runs like this: as §1
human Adenosine A2b receptor, sequence (P29275 whole entry): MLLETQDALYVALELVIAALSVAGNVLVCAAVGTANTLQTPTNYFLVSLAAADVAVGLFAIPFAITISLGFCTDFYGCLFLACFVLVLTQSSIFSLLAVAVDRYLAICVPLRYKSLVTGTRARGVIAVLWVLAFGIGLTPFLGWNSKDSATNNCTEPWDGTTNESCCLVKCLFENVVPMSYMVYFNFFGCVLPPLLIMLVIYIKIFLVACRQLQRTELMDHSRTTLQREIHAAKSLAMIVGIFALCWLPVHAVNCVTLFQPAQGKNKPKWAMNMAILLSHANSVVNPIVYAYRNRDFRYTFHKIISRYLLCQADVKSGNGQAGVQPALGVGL
Test [4] concerns CD8+T cells in human whole blood. The experiment in a line: Measurement of pCREB in CD8+T cells in human whole blood. Particulars: 3 μM NECA, rolipram. Format: cell-based. On the procedure:
Biological Example—Measurement of pCREB in CD8+T Cells in Human Whole Blood
Heparinised human whole blood was pre-incubated at 37° C. with serial dilutions of A2a antagonists for 20 min. and the phosphodiesterase inhibitor rolipram to amplify the pCREB response. The adenosine receptor agonist NECA is then added at a final concentration of 3 μM and following a 60 min incubation the blood is fixed and red blood cells lysed. White blood cells are isolated, permeabilized and stained with directly conjugated fluorescent antibodies to phospho-CREB (Alexa Fluor 488) and CD8 (Alexa Fluor 647) and the level of phospho-CREB in CD8+T cells is measured by FACS using a BD Accuri C6 Flow Cytometer.

The target of test [5] is human Adenosine A1 receptor (Homo sapiens (Human), UniProt P30542). The experiment in a line: Adenosine receptor TR-FRET binding assay (A1). Particulars: inhibition of binding of 100 nM CA200645, CHO cell membranes. In short, it runs like this: as §1
human Adenosine A1 receptor, sequence (P30542 whole entry): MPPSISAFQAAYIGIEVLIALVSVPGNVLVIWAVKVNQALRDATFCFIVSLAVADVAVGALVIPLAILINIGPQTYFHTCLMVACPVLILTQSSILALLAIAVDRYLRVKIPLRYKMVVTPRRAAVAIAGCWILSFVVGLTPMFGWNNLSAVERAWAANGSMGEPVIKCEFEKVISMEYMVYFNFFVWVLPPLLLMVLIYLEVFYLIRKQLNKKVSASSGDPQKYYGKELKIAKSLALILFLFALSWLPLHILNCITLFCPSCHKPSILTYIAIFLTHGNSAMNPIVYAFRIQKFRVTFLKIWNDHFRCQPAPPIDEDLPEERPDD
Setting [6] is: TR-FRET, inhibition of binding of 30 nM CA200645, CHO cell membranes.

What is called Ki is the equilibrium dissociation constant of an inhibitor or competing ligand from its target. The IC50 is the concentration that inhibits the measured activity by half.

Each structure is given as a SMILES string. Like-named read-outs stand apart in the source and are kept apart here.

For `Cc1cc(-c2sc(NC(=O)N3CCN[C@@H](C(F)(F)F)C3)nc2-c2cccc(C#N)c2)cc(C)n1` [Example 13.13, (3R)-N-[4-(3-Cyanophenyl)-5-(2,6-dimethyl-4-pyridyl)thiazol-2-yl]-3-(trifluoromethyl)piperazine-1-carboxamide], the Ki turned out to be 0.48 nM in test [1], 871 nM in test [2], 8 nM in test [3] (setting [6]) and 19 nM in test [5]. This compound returned an IC50 in test [4] of 110 nM.
Turning to `Cc1cc(-c2sc(NC(=O)N3CC4(COC4)C3)nc2-c2cccc(C#N)c2)cc([C@@H](C)O)n1` (single isomer, unassigned) [Example 12.3b, N-[4-(3-Cyanophenyl)-5-[2-[(1R)-1-hydroxyethyl]-6-methyl-4-pyridyl]thiazol-2-yl]-2-oxa-6-azaspiro[3.3]heptane-6-carboxamide or N-[4-(3-cyanophenyl)-5-[2-[(1S)-1-hydroxyethyl]-6-methyl-4-pyridyl]thiazol-2-yl]-2-oxa-6-azaspiro[3.3]heptane-6-carboxamide], the inhibition constant (Ki) in test [1] came to 0.42 nM; in test [3] (setting [6]), 1.2 nM; in test [5] it was 19 nM. The compound further showed an IC50 in test [4] of 10 nM.
The like results for `CC(=O)Nc1cc(-c2sc(NC(=O)N3CC4(COC4)C3)nc2-c2cccc(C#N)c2)cc(C)n1` [Example 19, N-[5-(2-Acetamido-6-methyl-4-pyridyl)-4-(3-cyanophenyl)thiazol-2-yl]-2-oxa-6-azaspiro[3.3]heptane-6-carboxamide] were, in that order, 1.86 nM, 7.9 nM, 137 nM and 290 nM.
For the compound `Cc1cc(-c2sc(NC(=O)N3CCN(C4COC4)CC3)nc2-c2cccc(C#N)c2)cc(CO)n1` [Example 9.4], the Ki in test [1] is 4.19 nM; in test [2], 1540 nM; in test [3] (setting [6]), 20.1 nM; in test [5] it was 410 nM.
Take `Cc1cc(-c2sc(NC(=O)N3C[C@H]4OCCN(C)[C@H]4C3)nc2-c2cccc(C#N)c2)cc(C(F)F)n1` (racemic) [Example 6.106, rac-(4aS,7aR)-N-[4-(3-Cyanophenyl)-5-[2-(difluoromethyl)-6-methyl-4-pyridyl]thiazol-2-yl]-4-methyl-2,3,4a,5,7,7a-hexahydropyrrolo[3,4-b][1,4]oxazine-6-carboxamide]: the Ki in test [1] stood at 1.07 nM; in test [2] it was 195 nM; in test [3] it was 4.5 nM; in test [5] it was 139 nM.
As for `Cc1cc(-c2sc(NC(=O)N3CCN[C@@H](C(=O)O)C3)nc2-c2cccc(C#N)c2)cc(Cl)n1` [Example 5, (2R)-4-[[5-(2-Chloro-6-methyl-4-pyridyl)-4-(3-cyanophenyl)thiazol-2-yl]carbamoyl]piperazine-2-carboxylic acid], the Ki in test [1] was 5.75 nM; in test [2], 696 nM; in test [3] (setting [6]) it was 5.5 nM; in test [5], 601 nM.
With `Cc1cc(-c2sc(NC(=O)N3CCN[C@H](C)C3)nc2-c2cccc(C#N)c2)cc(C(F)(F)F)n1` [Example 14, (3R)—N-[4-(3-Cyanophenyl)-5-[2-methyl-6-(trifluoromethyl)-4-pyridyl]thiazol-2-yl]-3-methyl-piperazine-1-carboxamide], the Ki in test [1] was determined as 2.71 nM; in test [2] it was 47 nM; in test [3] (setting [6]), 7.4 nM; in test [5] it was 45 nM.
Taken in the same sequence, the figures for `Cc1cc(-c2sc(NC(=O)N3CCC(C(=O)O)CC3)nc2-c2cccc(C#N)c2)cc(C)n1` [Example 6.62, 1-[[4-(3-Cyanophenyl)-5-(2,6-dimethyl-4-pyridyl)thiazol-2-yl]carbamoyl]piperidine-4-carboxylic acid] were 35.7 nM, 358 nM, 23.3 nM and 219 nM.
The like results for `Cc1cc(-c2sc(NC(=O)N3CC[C@@H](C(N)=O)C3)nc2-c2cccc(C#N)c2)cc(C)n1` [Example 6.8, (3R)-N1-[4-(3-Cyanophenyl)-5-(2,6-dimethyl-4-pyridyl)thiazol-2-yl]pyrrolidine-1,3-dicarboxamide] were, in that order, 0.72 nM, 312 nM, 1.1 nM and 23 nM.
Taken in the same sequence, the figures for `Cc1cc(-c2sc(NC(=O)N3CC(C(=O)O)C3)nc2-c2cccc(C#N)c2)cc(C)n1` [Example 6.70, 1-[[4-(3-Cyanophenyl)-5-(2,6-dimethyl-4-pyridyl)thiazol-2-yl]carbamoyl]azetidine-3-carboxylic acid] were 9.59 nM, 192 nM, 13.1 nM and 163 nM.
As to `Cc1cc(-c2sc(NC(=O)N3CCN[C@@H](C(N)=O)C3)nc2-c2cccc(C#N)c2)cc(Cl)n1` [Example 5.7, (3R)-N1-[5-(2-Chloro-6-methyl-4-pyridyl)-4-(3-cyanophenyl)thiazol-2-yl]piperazine-1,3-dicarboxamide], the Ki worked out at 2.9 nM in test [1], 247 nM in test [2], 1.8 nM in test [3] (setting [6]) and 48 nM in test [5].
Taken in the same sequence, the figures for `Cc1cc(-c2sc(NC(=O)N3CCC4(COCCN4)C3)nc2-c2cccc(C#N)c2)cc(C)n1` (stereo not shown) [Example 13.9] were 2.01 nM, 646 nM, 14.9 nM and 225 nM.
On to `Cc1cc(-c2sc(NC(=O)N3CCN[C@@H](CO)C3)nc2-c2cccc(C#N)c2)cc(Cl)n1` [Example 5.3, (3R)-N-[5-(2-Chloro-6-methyl-4-pyridyl)-4-(3-cyanophenyl)thiazol-2-yl]-3-(hydroxymethyl)piperazine-1-carboxamide], for which the Ki in test [1] was 2.31 nM; in test [2], 98 nM; in test [3] (setting [6]) it was 2.1 nM; in test [5], 90 nM.
For the compound `Cc1cc(-c2sc(NC(=O)N3CC[S+]([O-])CC3)nc2-c2cccc(C#N)c2)cc(C(F)(F)F)n1` [Example 16.2], the Ki in test [1] worked out at 0.38 nM; in test [2], 135 nM; in test [3] (setting [6]), 1.4 nM; in test [5], 16 nM.
As for `Cc1cc(-c2sc(NC(=O)N3CCS(=O)(=O)CC3)nc2-c2cccc(C#N)c2)cc(C)n1` [Example 4.27, N-[4-(3-Cyanophenyl)-5-(2,6-dimethyl-4-pyridyl)thiazol-2-yl]-1,1-dioxo-1,4-thiazinane-4-carboxamide], the Ki in test [1] came out at 0.1 nM; in test [2], 423 nM; in test [3] (setting [6]), 0.8 nM; in test [5] it was 6 nM.
Regarding `Cc1cc(-c2sc(NC(=O)N3CCN4C(=O)COCC4C3)nc2-c2cccc(C#N)c2)cc(C)n1` (stereo not shown) [Example 6.37, N-[4-(3-Cyanophenyl)-5-(2,6-dimethyl-4-pyridyl)thiazol-2-yl]-4-oxo-6,7,9,9a-tetrahydro-1H-pyrazino[2,1-c][1,4]oxazine-8-carboxamide], the Ki in test [1] stood at 1.82 nM; in test [2] it was 356 nM; in test [3] (setting [6]) it was 10.1 nM; in test [5], 91 nM.
For the compound `Cc1cc(-c2sc(NC(=O)N3CCNC[C@@H]3C)nc2-c2cccc(C#N)c2)cc(C)n1` [Example 13.4, (2S)-N-[4-(3-Cyanophenyl)-5-(2,6-dimethyl-4-pyridyl)thiazol-2-yl]-2-methyl-piperazine-1-carboxamide], the Ki in test [1] is 5.13 nM; in test [2], 54 nM; in test [3] (setting [6]), 19.6 nM; in test [5] it was 54 nM.
Regarding `Cc1cc(-c2sc(NC(=O)N3CC(=O)N[C@@H](C)C3)nc2-c2cccc(C#N)c2)cc(C)n1` [Example 6.90, (3S)-N-[4-(3-Cyanophenyl)-5-(2,6-dimethyl-4-pyridyl)thiazol-2-yl]-3-methyl-5-oxo-piperazine-1-carboxamide], the Ki was 3.16 nM in test [1], 106 nM in test [2], 10.7 nM in test [3] (setting [6]) and 63 nM in test [5].
`Cc1cc(-c2sc(NC(=O)N3CCC(c4ncc[nH]4)CC3)nc2-c2cccc(C#N)c2)cc(C)n1` [Example 6.25, N-[4-(3-Cyanophenyl)-5-(2,6-dimethyl-4-pyridyl)thiazol-2-yl]-4-(1H-imidazol-2-yl)piperidine-1-carboxamide]: the Ki in test [1] stood at 1.73 nM; in test [2] it was 94 nM; in test [3] (setting [6]), 1.1 nM; in test [5] it was 2 nM.
The like results for `Cc1cc(-c2sc(NC(=O)N3CCC4(CCN(C)C4=O)CC3)nc2-c2cccc(C#N)c2)cc(C)n1` [Example 6.77, N-[4-(3-Cyanophenyl)-5-(2,6-dimethyl-4-pyridyl)thiazol-2-yl]-2-methyl-1-oxo-2,8-diazaspiro[4.5]decane-8-carboxamide] were, in that order, 1.44 nM, 193 nM, 5.4 nM and 133 nM.
In the case of `Cc1cc(-c2sc(NC(=O)N3CC4CC(C3)N4)nc2-c2cccc(C#N)c2)cc(C)n1` [Example 13.7, N-[4-(3-Cyanophenyl)-5-(2,6-dimethyl-4-pyridyl)thiazol-2-yl]-3,6-diazabicyclo[3.1.1]heptane-3-carboxamide], the Ki came out at 7.46 nM in test [1], 256 nM in test [2], 13.7 nM in test [3] (setting [6]) and 174 nM in test [5].
